Results from PMC4424350, “Unraveling the Specific Regulation of the Central Pathway for Anaerobic Degradation of 3-Methylbenzoate” (The Journal of Biological Chemistry, 2015).

Target: T1, MbdR (MbdR-His6) (Azoarcus sp., UniProt Z9KMW0QJC7)
T1 construct: full-length, C-terminal His6 (pETmbdR), expressed in E. coli BL21(DE3), Ni-NTA; dimer in solution
Test: gel retardation (release of promoter DNA); DNase I footprinting; in vitro transcription
Format: binding
Details: inducer; 30 nM MbdR-His6 with PO or PB1 DNA probe, 20 mM Tris-HCl pH 7.5, 50 mM KCl, 30 °C

SMILES: Cc1cccc(C(=O)SCCNC(=O)CCNC(=O)[C@H](O)C(C)(C)COP(=O)(O)OP(=O)(O)OC[C@H]2O[C@@H](n3cnc4c(N)ncnc43)[C@H](O)[C@@H]2OP(=O)(O)O)c1 [3-methylbenzoyl-CoA]
- gel retardation (release of promoter DNA); DNase I footprinting; in vitro transc: 3-methylbenzoyl-CoA inhibited the interaction of MbdR with the PO and PB1 probes
